From patent US10568992B2, “Peptides for supporting endothelial progenitor cell rolling and capture and endothelialization of biomaterials” (Auburn University, priority 2015, dated 2020)
Bridges are numbered along the chain shown (N, C = ends). Where no end group is shown, it is not given here.

Tests used:
[1] = system: endothelial colony forming cells (ECFCs); experiment: ECFC rolling on peptide-grafted PEG hydrogels under shear (parallel plate flow chamber); assay type: cell-based; set-up: ECFC rolling velocity: unit not given here; conditions: for ECFC rolling velocities: FIG. 15A; for ECFC rolling velocities / ECFC rolling velocity / rolling velocities of ECFCs: mean±SD (n=3); for ECFC rolling velocity: 0.7 μmol/mL PEG-peptide grafted hydrogel; for support of ECFC rolling (velocity below rolling cutoff, 40% of average fluid velocity): shear rates 20-120 s^−1; for rolling velocities of ECFCs: FIG. 13A
Experimental: (§1) Umbilical cord blood ECFCs were used in this study. To create the peptide-grafted PEG surfaces, PEG-DA was first photopolymerized to form a hydrogel base. Peptides were conjugated to acryloyl-PEG-SVA to produced the PEG-peptides, and 0.7 μmol/mL of each PEG-peptide was grafted onto the surface of the PEG hydrogel base. Shear experiments were performed to examine ECFC rolling and adhesion on the hydrogel surfaces. Using a Glycotech parallel plate flow chamber, the ECFC cell suspension was sheared over the hydrogels at shear rates of 20 s^−1, 40 s^−1, 80 s^−1, and 120 s^−1. Cell rolling events were recorded at 70 fps using a high speed camera. Cell tracking was performed using ImageJ and Matlab to determine rolling velocities. Finally ECFC retention on the RGDSQ ID NO:3)-grafted PEG hydrogels was quantified under superphysiological shear stress.
To form the PEG-peptide grafting solution, the acryloyl-PEG-peptide was first dissolved in sterile PBS at the desired concentration (ranging from 0.7 mM to 5.6 mM) and the photoinitiator was added as described above. After each PEGDA hydrogel was photocrosslinked, the top plate of the mold was removed. The hydrogels were rinsed with sterile PBS and briefly dried with a stream of nitrogen to remove excess PBS on the surface of the hydrogel. The mold's 0.5 mm PDMS spacers were replaced with 0.7 mm PDMS spacers and a clean glass slide was placed on top. Then the PEG-peptide grafting solution was injected between the hydrogel and the new piece of glass and photocrosslinked to the top of the PEGDA hydrogel under the UV lamp for 7 min. PEG-peptide grafted hydrogels were then rinsed and swollen in sterile PBS for experiments.
To identify whether a cell is rolling, the upper velocity cutoff was determined by flowing ECFCs across the surface of control PEG hydrogels at different shear rates. Using video recordings, ECFC rotation on the focal plane of PEG hydrogels was observed. […] Therefore, based on these experiments, 40% of average fluid flow velocity was used as the cutoff velocity for cell rolling as is shown in FIG. 12.

[2] = system: endothelial colony forming cells (ECFCs); experiment: Adhesion of ECFCs on peptide-grafted PEG hydrogels (static); assay type: cell-based; conditions: for ECFC monolayer formation and cobble stone morphology: peptide-grafted hydrogels; for ECFC adhesion and spreading: after 24 hours
From the text: ECFC adhesion on (A) CRRETAWAC (SEQ ID NO:1)-(B) PRb ([…]), —(C) P11 (SEQ ID NO: 11)-grafted PEG hydrogels.
Adhesion of ECFCs on CRRETAWAC (SEQ ID NO:1)-, PRb (SEQ ID NO:18)-, P11 (SEQ ID NO: 11)-grafted hydrogels was first accessed. […] On P11-grafted hydrogels, ECFCs aggregated to form adherent cell clumps. […] Without the ability to support cell spreading and the formation of monolayer, P11 alone could not support ECFC endothelialization which is critical for healing damaged and diseased blood vessels.

[3] = system: endothelial colony forming cells (ECFCs); experiment: ECFC capture on peptide-grafted PEG hydrogels under shear; assay type: cell-based; conditions: 20 s^−1; for ECFCs captured (captured cells normalized to total cells interacting with hydrogel surface): 2 min recordings, total 0.7 μmol/mL peptide grafted (combinations 0.35/0.35 μmol/mL), mean±SD (n=3); for ECFC capture events (in words): low shear rate
Experimental: as §1
Cell capture events were consistently observed on CRRETAWAC (SEQ ID NO:1)- and PRb (SEQ ID NO:18)-grafted hydrogels at 20 s^−1. Number of captured cells were counted and normalized to the total number of cells interacted with each hydrogel surface. During each of the 2 min recordings, 3.74%±1.0% of ECFCs were captured on CRRETAWAC (SEQ ID NO:1)-grafted hydrogels and 1.14%±0.2% of ECFCs were captured on PRb-grafted hydrogels FIG. 9. Since both of these novel peptides are specific for the integrin α5β1, the result of this study strongly supports that α5β1 is responsible for cell capture.
To further evaluate the potential use of CRRETAWAC (SEQ ID NO:1) and PRb in the ECFC capture for endothelialization, ECFC rolling on hydrogels that were grafted with combinations of CRRETAWAC (SEQ ID NO:1) or PRb (SEQ ID NO:18) with REDV (SEQ ID NO:2) was assessed. In order to maintain consistent grafting of peptides, a final concentrations of 0.7 μmol/mL of equal molar mixtures of acryloyl-PEG-peptides precursors were grafted onto the surface of PEG hydrogels.

integrin α5β1 = integrin α5β1 (Homo sapiens, UniProt P05556+P08648); conditions: among the non-RGD containing peptides of the library; cited from earlier work
αvβ3 integrin = αvβ3 integrin (Homo sapiens, UniProt P05106+P06756); conditions: among 12 HXXXHK hexapeptides; cited from earlier work
Chain of αvβ3 integrin (P06756 31-889 limits assumed): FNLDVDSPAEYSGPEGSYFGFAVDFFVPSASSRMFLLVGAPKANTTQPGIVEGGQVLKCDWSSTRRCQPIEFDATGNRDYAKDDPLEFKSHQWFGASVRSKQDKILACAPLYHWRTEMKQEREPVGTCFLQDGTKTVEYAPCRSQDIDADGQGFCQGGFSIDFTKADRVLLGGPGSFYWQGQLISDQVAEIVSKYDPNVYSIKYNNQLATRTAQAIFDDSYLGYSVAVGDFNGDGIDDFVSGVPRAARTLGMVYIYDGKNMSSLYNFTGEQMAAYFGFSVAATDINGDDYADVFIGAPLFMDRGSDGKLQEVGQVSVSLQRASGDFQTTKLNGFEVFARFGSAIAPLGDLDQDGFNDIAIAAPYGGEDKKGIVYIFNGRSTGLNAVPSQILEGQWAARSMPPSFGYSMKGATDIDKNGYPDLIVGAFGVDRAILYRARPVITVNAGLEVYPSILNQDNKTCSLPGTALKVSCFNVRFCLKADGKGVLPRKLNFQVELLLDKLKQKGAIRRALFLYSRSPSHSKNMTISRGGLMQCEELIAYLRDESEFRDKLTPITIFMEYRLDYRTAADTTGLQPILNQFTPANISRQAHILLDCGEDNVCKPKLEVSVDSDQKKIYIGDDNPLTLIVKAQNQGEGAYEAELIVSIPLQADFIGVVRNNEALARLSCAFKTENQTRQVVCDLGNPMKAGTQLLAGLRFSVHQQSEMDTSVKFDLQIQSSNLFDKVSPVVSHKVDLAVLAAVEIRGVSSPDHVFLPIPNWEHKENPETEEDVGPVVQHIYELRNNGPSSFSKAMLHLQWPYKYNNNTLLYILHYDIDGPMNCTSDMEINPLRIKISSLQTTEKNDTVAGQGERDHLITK
Chain of αvβ3 integrin (P06756 891-1048 partner limits assumed): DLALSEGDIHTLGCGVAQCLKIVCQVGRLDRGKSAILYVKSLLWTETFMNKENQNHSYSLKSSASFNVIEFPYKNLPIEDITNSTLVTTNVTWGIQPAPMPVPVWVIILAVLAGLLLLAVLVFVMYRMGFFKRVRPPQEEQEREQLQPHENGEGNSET
Chain of αvβ3 integrin (P05106 27-788): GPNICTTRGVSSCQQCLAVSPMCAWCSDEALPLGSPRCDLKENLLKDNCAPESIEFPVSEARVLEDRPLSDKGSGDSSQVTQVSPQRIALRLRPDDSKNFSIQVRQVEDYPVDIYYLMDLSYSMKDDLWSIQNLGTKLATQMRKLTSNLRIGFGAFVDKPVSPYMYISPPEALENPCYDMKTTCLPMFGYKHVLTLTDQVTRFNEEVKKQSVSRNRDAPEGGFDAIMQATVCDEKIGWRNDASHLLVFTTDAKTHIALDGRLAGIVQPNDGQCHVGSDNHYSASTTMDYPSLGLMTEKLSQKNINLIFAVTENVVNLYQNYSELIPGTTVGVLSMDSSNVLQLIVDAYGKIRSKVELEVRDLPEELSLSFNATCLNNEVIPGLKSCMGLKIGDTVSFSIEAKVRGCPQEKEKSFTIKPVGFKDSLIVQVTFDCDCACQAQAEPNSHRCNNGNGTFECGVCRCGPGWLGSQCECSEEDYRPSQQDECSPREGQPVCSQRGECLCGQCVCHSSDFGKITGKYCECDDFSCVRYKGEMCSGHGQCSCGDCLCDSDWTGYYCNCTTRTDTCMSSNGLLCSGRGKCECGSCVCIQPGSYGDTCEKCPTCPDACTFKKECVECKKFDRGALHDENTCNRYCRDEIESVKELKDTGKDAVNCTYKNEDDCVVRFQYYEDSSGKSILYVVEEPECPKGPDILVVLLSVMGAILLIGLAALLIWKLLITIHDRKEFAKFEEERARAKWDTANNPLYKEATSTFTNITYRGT

Chain of integrin α5β1 (P08648 42-894 limits assumed): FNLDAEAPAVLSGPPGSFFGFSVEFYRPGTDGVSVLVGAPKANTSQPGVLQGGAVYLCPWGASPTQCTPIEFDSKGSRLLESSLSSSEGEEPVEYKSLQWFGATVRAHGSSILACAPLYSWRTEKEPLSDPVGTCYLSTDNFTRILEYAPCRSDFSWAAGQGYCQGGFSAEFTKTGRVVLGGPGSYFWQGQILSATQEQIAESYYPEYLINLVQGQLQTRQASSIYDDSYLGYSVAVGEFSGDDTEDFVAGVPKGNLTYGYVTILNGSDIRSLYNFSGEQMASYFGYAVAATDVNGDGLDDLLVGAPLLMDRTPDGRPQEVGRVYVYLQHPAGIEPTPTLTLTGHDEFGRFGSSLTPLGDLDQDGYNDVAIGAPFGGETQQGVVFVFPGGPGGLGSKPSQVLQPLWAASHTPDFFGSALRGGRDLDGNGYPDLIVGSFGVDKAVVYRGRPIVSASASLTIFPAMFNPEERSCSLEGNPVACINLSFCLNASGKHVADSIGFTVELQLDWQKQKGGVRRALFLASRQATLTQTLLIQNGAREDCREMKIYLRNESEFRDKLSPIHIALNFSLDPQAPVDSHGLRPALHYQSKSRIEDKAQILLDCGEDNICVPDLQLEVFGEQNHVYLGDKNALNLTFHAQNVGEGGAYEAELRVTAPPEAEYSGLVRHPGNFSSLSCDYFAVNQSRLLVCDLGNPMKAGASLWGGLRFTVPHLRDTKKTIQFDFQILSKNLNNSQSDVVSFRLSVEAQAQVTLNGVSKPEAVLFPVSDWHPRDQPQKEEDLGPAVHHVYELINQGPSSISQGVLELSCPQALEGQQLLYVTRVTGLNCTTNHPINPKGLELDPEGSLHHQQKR
Chain of integrin α5β1 (P08648 895-1049 partner limits assumed): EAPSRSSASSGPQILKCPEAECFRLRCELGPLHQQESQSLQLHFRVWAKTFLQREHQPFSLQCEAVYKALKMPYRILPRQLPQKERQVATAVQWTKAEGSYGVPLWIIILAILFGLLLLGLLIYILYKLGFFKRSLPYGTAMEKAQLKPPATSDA
Chain of integrin α5β1 (P05556 21-798): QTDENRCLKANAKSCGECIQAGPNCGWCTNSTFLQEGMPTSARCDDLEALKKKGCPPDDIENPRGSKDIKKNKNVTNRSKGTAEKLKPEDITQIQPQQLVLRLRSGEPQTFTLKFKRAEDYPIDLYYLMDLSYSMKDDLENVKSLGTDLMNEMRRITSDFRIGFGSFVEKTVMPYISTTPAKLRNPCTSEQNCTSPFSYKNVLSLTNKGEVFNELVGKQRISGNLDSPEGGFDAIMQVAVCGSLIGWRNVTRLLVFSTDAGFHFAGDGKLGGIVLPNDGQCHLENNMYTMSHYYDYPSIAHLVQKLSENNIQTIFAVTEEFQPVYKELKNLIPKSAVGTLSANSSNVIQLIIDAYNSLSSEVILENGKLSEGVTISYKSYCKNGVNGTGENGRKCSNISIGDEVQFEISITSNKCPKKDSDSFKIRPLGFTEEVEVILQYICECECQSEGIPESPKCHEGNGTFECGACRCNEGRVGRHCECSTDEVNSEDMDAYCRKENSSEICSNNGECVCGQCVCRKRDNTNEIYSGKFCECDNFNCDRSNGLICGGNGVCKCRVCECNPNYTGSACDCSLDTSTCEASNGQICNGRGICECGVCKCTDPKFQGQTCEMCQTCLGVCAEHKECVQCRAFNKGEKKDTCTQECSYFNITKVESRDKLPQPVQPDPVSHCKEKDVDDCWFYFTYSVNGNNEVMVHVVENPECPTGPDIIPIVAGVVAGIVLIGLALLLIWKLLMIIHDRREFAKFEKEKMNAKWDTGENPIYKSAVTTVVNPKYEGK

For YIGSRG (also: PEG conjugate), the ECFC rolling velocities ([1]; 20 s^−1) was 102±9 μm s^−1, the ECFC rolling velocities ([1]; 40 s^−1) was 223±22 μm s^−1 and the ECFC rolling velocities ([1]; 80 s^−1) was 484±12 μm s^−1. It also gave an ECFC rolling velocities ([1]; 120 s^−1) of 740±10 μm s^−1, an ECFC rolling velocity ([1]; shear rate 20 1/s) of 103.2 and an ECFC rolling velocity ([1]; shear rate 40 1/s) of 223.2 ± 38.0. For the same substance, the ECFC rolling velocity ([1]; shear rate 80 1/s) was 487.6 ± 72.5, the ECFC rolling velocity ([1]; shear rate 120 1/s) was 737.0 ± 107.9 and the “support of ECFC rolling (velocity below rolling cutoff, 40% of average fluid velocity)” value [1] was “supported ECFC rolling”. For the same substance, the “ECFC monolayer formation and cobble stone morphology” value [2] was “not”.

For PHSRNSGSGSGSGSGRGDSG [PRb], the ECFC rolling velocity ([1]; shear rate 20 1/s) was 110.3, the ECFC rolling velocity ([1]; shear rate 40 1/s) was 235.0 ± 36.1 and the ECFC rolling velocity ([1]; shear rate 80 1/s) was 485.7 ± 67.5. For the same substance, the ECFC rolling velocity ([1]; shear rate 120 1/s) was 735.1 ± 102.6, the “ECFCs captured (captured cells normalized to total cells interacting with hydrogel surface)” value [3] was 1.14% and the “ECFC adhesion and spreading” value [2] was “supported ECFC adhesion and spreading”. For the same substance, the “ECFC monolayer formation and cobble stone morphology” value [2] was “able to form monolayer and maintain cobble stone morphology”.

“CRRETAWAC (disulfide 1-9 (inferred); also: grafted on PEG hydrogel via acryloyl-PEG)” gave an ECFC rolling velocity ([1]; shear rate 20 1/s) of 131.6, an ECFC rolling velocity ([1]; shear rate 40 1/s) of 278.4 ± 28.6 and an ECFC rolling velocity ([1]; shear rate 80 1/s) of 550.6 ± 64.1. The ECFC rolling velocity ([1]; shear rate 120 1/s) was 828.4 ± 82.7, the “ECFCs captured (captured cells normalized to total cells interacting with hydrogel surface)” value [3] was 3.74% and the “affinity to α5β1” value (integrin α5β1) was “highest affinity”. For the same substance, the “ECFC adhesion and spreading” value [2] was “supported ECFC adhesion and spreading” and the “ECFC monolayer formation and cobble stone morphology” value [2] was “able to form monolayer and maintain cobble stone morphology”.

“HSDVHK [Peptide P11, synthesized as HSDVHKG]” showed an ECFC rolling velocity ([1]; shear rate 20 1/s) of 127.5, an ECFC rolling velocity ([1]; shear rate 40 1/s) of 251.0 ± 41.2 and an ECFC rolling velocity ([1]; shear rate 80 1/s) of 508.0 ± 86.5. For the same substance, the ECFC rolling velocity ([1]; shear rate 120 1/s) was 787.6 ± 102.1, the “competition with fluorescently labeled VN for αvβ3” value (αvβ3 integrin) was “most competitive for αvβ3” and the “ECFC adhesion and spreading” value [2] was “only able to support ECFC adhesion, but not spreading”. For the same substance, the “ECFC monolayer formation and cobble stone morphology” value [2] was “not”.

For REDV (also: PEG conjugate), the ECFC rolling velocities ([1]; 20 s^−1) was 79±4 μm s^−1, the ECFC rolling velocities ([1]; 40 s^−1) was 181±6 μm s^−1 and the ECFC rolling velocities ([1]; 80 s^−1) was 357±6 μm s^−1. The ECFC rolling velocities ([1]; 120 s^−1) was 560±15 μm s^−1, the ECFC rolling velocity ([1]; shear rate 20 1/s) was 78.6 and the ECFC rolling velocity ([1]; shear rate 40 1/s) was 183.3 ± 43.4. For the same substance, the ECFC rolling velocity ([1]; shear rate 80 1/s) was 353.8 ± 82.0, the ECFC rolling velocity ([1]; shear rate 120 1/s) was 564.3 ± 177.0 and the “support of ECFC rolling (velocity below rolling cutoff, 40% of average fluid velocity)” value [1] was “supported ECFC rolling”. For the same substance, the “ECFC capture events (in words)” value [3] was “does not support capture even at low shear rates” and the “ECFC monolayer formation and cobble stone morphology” value [2] was “not”.

In the case of RGES (also: PEG conjugate), the “support of ECFC rolling (velocity below rolling cutoff, 40% of average fluid velocity)” value [1] is reported as “did not support ECFC rolling”.

With “RGDS (also: PEG conjugate) [ubiquitous cell adhesion peptide]” the “rolling velocities of ECFCs” value ([1]; 20 s^−1) was 103±3 μm/s, the “rolling velocities of ECFCs” value ([1]; 40 s^−1) was 223±14 μm/s and the “rolling velocities of ECFCs” value ([1]; 80 s^−1) was 469±38 μm/s. The “rolling velocities of ECFCs” value ([1]; 120 s^−1) was 741±28 μm/s, the ECFC rolling velocity ([1]; shear rate 20 1/s) was 102.2 and the ECFC rolling velocity ([1]; shear rate 40 1/s) was 218.7 ± 42.4. For the same substance, the ECFC rolling velocity ([1]; shear rate 80 1/s) was 455.8 ± 86.7, the ECFC rolling velocity ([1]; shear rate 120 1/s) was 739.7 ± 121.9 and the “support of ECFC rolling (velocity below rolling cutoff, 40% of average fluid velocity)” value [1] was “supported ECFC rolling at all shear rates”. The “ECFC capture events (in words)” value [3] was “Some ECFC capture events were observed” and the “ECFC monolayer formation and cobble stone morphology” value [2] was “able to form monolayer and maintain cobble stone morphology”.
